Test results reported in article PMC6017654, “Ionic Liquid-Promoted Synthesis of Novel Chromone-Pyrimidine Coupled Derivatives, Antimicrobial Analysis, Enzyme Assay, Docking Study and Toxicity Study” (Molecules : A Journal of Synthetic Chemistry and Natural …, 2018).
≈ marks a conversion by molar mass, not a printed value. Where two headings read alike, the source gives them in different places.

What was measured:
[1] = tested on: Escherichia coli 1411; assay: In vitro antibacterial activity (MIC100, two fold serial dilution, NCCLS); assay type: cell-based; details: read-out: MIC100
Description: (§1) All the synthesized compounds 4(a–f) and 6(a–f) were screened for their in vitro antibacterial activity against Staphylococcus aureus (NCIM-2901), Escherichia coli 1411 (standard laboratory strains) and Escherichia coli SM1411 (an acrAB deficient derivative of 1411). Minimum inhibitory concentration (MIC100) values were determined using methods recommended by National Committee for Clinical Laboratory Standards (NCCLS). Dimethyl sulfoxide (DMSO) was used as solvent control.
(§2) All the synthesized compounds 4(a–f) and 6(a–f) were screened for their in vitro antibacterial activity against Staphylococcus aureus (NCIM-2901) and Escherichia coli 1411 (standard laboratory strains) and Escherichia coli SM1411 (an acrAB deficient derivative of 1411). Minimum inhibitory concentration (MIC100) values were determined using the method recommended by National Committee for Clinical Laboratory Standards (NCCLS). In vitro antibacterial activities of the synthesized compounds 4(a–f) and 6(a–f) were tested in Nutrient Broth (NB) for Bacteria by the two fold serial dilution method. Seeded broth (broth containing microbial spores) was prepared in NB from 24 h old bacterial cultures on nutrient agar (Hi-media) at 37 ± 1 °C. The bacterial suspension was adjusted with sterile saline to a concentration of […]. The synthesized compounds and standard drug D-cycloserine were prepared by two fold serial dilutions to obtain the required concentrations. The tubes were incubated in BOD incubators at 37 ± 1 °C for bacteria. The MICs were recorded by visual observations after 24 h (for bacteria) of incubation.

[2] = tested on: Escherichia coli SM1411 (an acrAB deficient derivative of 1411); assay: as above; assay type: cell-based; details: 24 h, read-out: MIC100
Description: as §1, §2

[3] = tested on: Staphylococcus aureus (NCIM-2901); assay: as above; assay type: cell-based; details: for MIC: Staphylococcus aureus
Description: as §1, §2

[4] = tested on: Cryptococcus neoformans; assay: In vitro antifungal activity (MIC100, CLSI/NCCLS); assay type: cell-based; details: C. neo., average of three readings, read-out: MIC 100
Description: (§3) The newly synthesized derivatives 4(a–f) and 6(a–f) were screened for their in vitro antifungal activity against different yeast and filamentous fungal pathogens. Minimum inhibitory concentration (MIC100) values for in vitro antifungal activity were determined by the methods recommended by National Committee for Clinical Laboratory Standards (NCCLS). Miconazole was used as standard drug. Dimethyl sulfoxide (DMSO) was used as solvent control.
(§4) In vitro antifungal activity was determined as per CLSI (formerly, NCCLS) guidelines. […] The medium yeast nitrogen base was dissolved in phosphate buffer pH 7 and it was autoclaved at 110 °C for 10 min. With each set a growth control without the antifungal agent and solvent control DMSO were included. The fungal strains were freshly sub cultured on to Sabouraud dextrose agar (SDA) and incubated at 25 °C for 72 h. The fungal cells were suspended in sterile distilled water and diluted to get 10^5 cells/mL. Further, ten microlitres of the standardized suspension was inoculated onto the control plates and the media incorporated with the antifungal agents. The inoculated plates were incubated at 25 °C for 48 h. The readings were taken at the end of 48 h and 72 h. The MIC was the lowest concentration of drug preventing growth of macroscopically visible colonies on drug containing plates when there was visible growth on the drug free control plates.

[5] = tested on: A. flavus; assay: In vitro antifungal activity (MIC100, CLSI/NCCLS); assay type: cell-based; details: Aspergillus flavus; A. fla.; average of three readings; read-out: MIC 100
Description: as §3, §4

[6] = tested on: Aspergillus fumigates; assay: In vitro antifungal activity (MIC100, CLSI/NCCLS); assay type: cell-based; details: A. fum., average of three readings, read-out: MIC 100
Description: as §3, §4

[7] = tested on: Candida glabrata; assay: In vitro antifungal activity (MIC100, CLSI/NCCLS); assay type: cell-based; details: Nakaseomyces glabratus; C. glab.; average of three readings; read-out: MIC 100
Description: as §3, §4

[8] = tested on: Aspergillus niger; assay: In vitro antifungal activity (MIC100, CLSI/NCCLS); assay type: cell-based; details: A. nig., average of three readings, read-out: MIC 100
Description: as §3, §4

[9] = tested on: Fusarium oxysporum; assay: In vitro antifungal activity (MIC100, CLSI/NCCLS); assay type: cell-based; details: F. oxy., average of three readings, read-out: MIC 100
Description: as §3, §4

[10] = tested on: Candida albicans; assay: In vitro antifungal activity (MIC100, CLSI/NCCLS); assay type: cell-based; details: C. alb., average of three readings, read-out: MIC 100
Description: as §3, §4

[11] = molecular target: DdlB from E.coli (Escherichia coli, UniProt P07862); assay: D-Alanine-D-alanine ligase (DdlB) enzyme inhibition, malachite green method; assay type: biochemical; details: 37 °C, 30 min incubation, 5% DMSO
Description: The key enzyme involved in the peptidoglycan biosynthesis is D-alanine-D-alanine ligase (Ddl), making it an important target for drug discovery. Inhibition of DdlB as an essential enzyme in either Gram-positive or Gram-negative organisms leads to the loss of cell shape and integrity followed by bacterial death. The synthesized derivatives 4(a–f) and 6(a–f) were tested for their inhibitory activity on DdlB from E.coli. The results are presented as IC50 values.
The D-Ala-adding activity of DdlB ligase was monitored by the detection of orthophosphate generated during the reaction based on the colorimetric malachite green method described by Walsh et al.. […] All the compounds were soluble in the assay mixture containing 5% DMSO. After 30 min of incubation, 100 µL Biomol reagent was added. After 5 min, absorbance was read at 650 nm. Residual activity was calculated with respect to a similar assay without inhibitor. To exclude possible non-specific (promiscuous) inhibitors, representative compounds 4(a–f) and 6(a–f) were also tested in the presence of Tween (0.003%), Triton X-114 (0.005%), and SDS (420 µM), as described by McGovern et al.. No significant differences were found when compared to measurements without detergents.

[12] = NCIM2901, 24 h, read-out: MIC100, S. aureus NCIM-2901, average of three readings

Row | SMILES | MIC ([1]; Escherichia coli, 1411, 24 h) | MIC [2] | MIC [3, 12] | melting point | MIC [4] | MIC [5] | MIC [6] | MIC [7] | MIC [8] | MIC [9] | MIC [10] | IC50 [11] | MIC100 ([3]; S. aureus NCIM-2901, 24 h, average of three readings) | MIC ([1]; Escherichia coli, E. coli 1411, 24 h, average of three readings) | MIC ([3]; NCIM2901, S. aureus NCIM-2901, 24 h, average of three readings, read-out: MIC100)
1 | CCOC(=O)C1=C(C)NC(=O)NC1c1coc2ccccc2c1=O (centres unmarked) [Compound 4a, Ethyl 6-methyl-2-oxo-4-(4-oxo-4H-chromen-3-yl)-1,2,3,4-tetrahydropyrimidine-5-carboxylate] | 46 µg/mL (≈ 140 µM) | 40 µg/mL (≈ 122 µM) | 64 µg/mL (≈ 195 µM) | 270 to 272 °C | 60 µg/mL (≈ 183 µM) | 66 µg/mL (≈ 201 µM) | 65 µg/mL (≈ 198 µM) | > 100 µg/mL | 57 µg/mL (≈ 174 µM) | 82 µg/mL (≈ 250 µM) | > 100 µg/mL | 158 µM | – | – | –
2 | CCOC(=O)C1=C(C)NC(=S)NC1c1coc2ccccc2c1=O (centres unmarked) [Compound 4b, Ethyl 6-methyl-4-(4-oxo-4H-chromen-3-yl)-2-thioxo-1,2,3,4-tetrahydropyrimidine-5-carboxylate] | 50 µg/mL (≈ 145 µM) | 50 µg/mL (≈ 145 µM) | 68 µg/mL (≈ 197 µM) | 210 to 212 °C | 55 µg/mL (≈ 160 µM) | 66 µg/mL (≈ 192 µM) | 60 µg/mL (≈ 174 µM) | 66 µg/mL (≈ 192 µM) | 52 µg/mL (≈ 151 µM) | 58 µg/mL (≈ 168 µM) | 64 µg/mL (≈ 186 µM) | 296 µM | – | – | –
3 | CCOC(=O)C1=C(C)NC(=O)NC1c1coc2ccc(F)cc2c1=O (centres unmarked) [Compound 4c, Ethyl 4-(6-fluoro-4-oxo-4H-chromen-3-yl)-6-methyl-2-oxo-1,2,3,4-tetrahydropyrimidine-5-carboxylate] | 38 µg/mL (≈ 110 µM) | 34 µg/mL (≈ 98.2 µM) | 30 µg/mL (≈ 86.6 µM) | 200 to 202 °C | 46 µg/mL (≈ 133 µM) | 58 µg/mL (≈ 167 µM) | 62 µg/mL (≈ 179 µM) | 58 µg/mL (≈ 167 µM) | 44 µg/mL (≈ 127 µM) | 58 µg/mL (≈ 167 µM) | 52 µg/mL (≈ 150 µM) | 155 µM | – | – | –
4 | CCOC(=O)C1=C(C)NC(=O)NC1c1coc2ccc(OC)cc2c1=O (centres unmarked) [Compound 4d, Ethyl 4-(6-methoxy-4-oxo-4H-chromen-3-yl)-6-methyl-2-oxo-1,2,3,4-tetrahydropyrimidine-5-carboxylate] | 55 µg/mL (≈ 153 µM) | 54 µg/mL (≈ 151 µM) | > 200 µg/mL | 230 to 232 °C | 24 µg/mL (≈ 67 µM) | 20 µg/mL (≈ 55.8 µM) | 36 µg/mL (≈ 100 µM) | 38 µg/mL (≈ 106 µM) | 20 µg/mL (≈ 55.8 µM) | 36 µg/mL (≈ 100 µM) | 34 µg/mL (≈ 94.9 µM) | 330 µM | – | – | –
5 | CCOC(=O)C1=C(C)NC(=S)NC1c1coc2ccc(OC)cc2c1=O (centres unmarked) [Compound 4e, Ethyl 4-(6-methoxy-4-oxo-4H-chromen-3-yl)-6-methyl-2-thioxo-1,2,3,4-tetrahydropyrimidine-5-carboxylate] | 58 µg/mL (≈ 155 µM) | > 60 µg/mL | > 200 µg/mL | 222 to 224 °C | 20 µg/mL (≈ 53.4 µM) | 18 µg/mL (≈ 48.1 µM) | 34 µg/mL (≈ 90.8 µM) | 32 µg/mL (≈ 85.5 µM) | 18 µg/mL (≈ 48.1 µM) | 30 µg/mL (≈ 80.1 µM) | 30 µg/mL (≈ 80.1 µM) | 335 µM | – | – | –
6 | CCOC(=O)C1=C(C)NC(=S)NC1c1coc2ccc(F)cc2c1=O (centres unmarked) [Compound 4f, Ethyl 4-(6-fluoro-4-oxo-4H-chromen-3-yl)-6-methyl-2-thioxo-1,2,3,4-tetrahydropyrimidine-5-carboxylate] | 48 µg/mL (≈ 132 µM) | 44 µg/mL (≈ 121 µM) | 72 µg/mL (≈ 199 µM) | 228 to 230 °C | 30 µg/mL (≈ 82.8 µM) | 34 µg/mL (≈ 93.8 µM) | 55 µg/mL (≈ 152 µM) | 44 µg/mL (≈ 121 µM) | 34 µg/mL (≈ 93.8 µM) | 48 µg/mL (≈ 132 µM) | 46 µg/mL (≈ 127 µM) | 280 µM | – | – | –
7 | CC1=C(C(=O)NN)C(c2coc3ccccc3c2=O)NC(=O)N1 (centres unmarked) [Compound 6a, 6-Methyl-2-oxo-4-(4-oxo-4H-chromen-3-yl)-1,2,3,4-tetrahydropyrimidine-5-carbohydrazide] | 34 µg/mL (≈ 108 µM) | 32 µg/mL (≈ 102 µM) | 66 µg/mL (≈ 210 µM) | 256 to 258 °C | 58 µg/mL (≈ 185 µM) | 68 µg/mL (≈ 216 µM) | 60 µg/mL (≈ 191 µM) | 68 µg/mL (≈ 216 µM) | 55 µg/mL (≈ 175 µM) | 76 µg/mL (≈ 242 µM) | 78 µg/mL (≈ 248 µM) | 127 µM | – | – | –
8 | CC1=C(C(=O)NN)C(c2coc3ccccc3c2=O)NC(=S)N1 (centres unmarked) [Compound 6b, 6-Methyl-4-(4-oxo-4H-chromen-3-yl)-2-thioxo-1,2,3,4-tetrahydropyrimidine-5-carbohydrazide] | 34 µg/mL (≈ 103 µM) | 34 µg/mL (≈ 103 µM) | 76 µg/mL (≈ 230 µM) | 198 to 200 °C | 50 µg/mL (≈ 151 µM) | 60 µg/mL (≈ 182 µM) | 58 µg/mL (≈ 176 µM) | 60 µg/mL (≈ 182 µM) | 48 µg/mL (≈ 145 µM) | 54 µg/mL (≈ 163 µM) | 64 µg/mL (≈ 194 µM) | 124 µM | – | – | –
9 | CC1=C(C(=O)NN)C(c2coc3ccc(F)cc3c2=O)NC(=S)N1 (centres unmarked) [Compound 6d, 4-(6-Fluoro-4-oxo-4H-chromen-3-yl)-6-methyl-2-thioxo-1,2,3,4-tetrahydropyrimidine-5-carbohydrazide] | 16 µg/mL (≈ 45.9 µM) | 18 µg/mL (≈ 51.7 µM) | 32 µg/mL (≈ 91.9 µM) | 146 to 148 °C | 28 µg/mL (≈ 80.4 µM) | 30 µg/mL (≈ 86.1 µM) | 52 µg/mL (≈ 149 µM) | 40 µg/mL (≈ 115 µM) | 28 µg/mL (≈ 80.4 µM) | 44 µg/mL (≈ 126 µM) | 44 µg/mL (≈ 126 µM) | 111 µM | 40 µg/mL (≈ 115 µM) | – | –
10 | COc1ccc2occ(C3NC(=O)NC(C)=C3C(=O)NN)c(=O)c2c1 (centres unmarked) [Compound 6e, 4-(6-Methoxy-4-oxo-4H-chromen-3-yl)-6-methyl-2-oxo-1,2,3,4-tetrahydropyrimidine-5-carbohydrazide] | > 60 µg/mL | 58 µg/mL (≈ 168 µM) | 156 µg/mL (≈ 453 µM) | 208 to 210 °C | 16 µg/mL (≈ 46.5 µM) | 16 µg/mL (≈ 46.5 µM) | 32 µg/mL (≈ 92.9 µM) | 30 µg/mL (≈ 87.1 µM) | 18 µg/mL (≈ 52.3 µM) | 30 µg/mL (≈ 87.1 µM) | 28 µg/mL (≈ 81.3 µM) | 315 µM | – | – | –
11 | N[C@@H]1CON=C1O [D-Cycloserine, reference compound] | – | 16 µg/mL (≈ 157 µM) | – | – | – | – | – | – | – | – | – | 276 µM | – | 16 µg/mL (≈ 157 µM) | 32 µg/mL (≈ 313 µM)
